Source: ChEMBL document CHEMBL5620415, “Design, synthesis and anti-hepatic fibrosis activity of novel diphenyl vitamin D receptor agonists” (Eur J Med Chem, 2023)
Activity calls are given as the source filed them. The rule behind the calls is not given here.

How the values were obtained:
Mus musculus [1] = assay: Anti-fibrotic effect in CCl4-induced hepatic fibrosis C57BL/6 mouse model assessed as inhibition of serum total bile acid (TBA) level at 500 ug/kg, po five times a week for 2 weeks; type: functional, organism-based; details: dose 500.0 µg/kg
Mus musculus [2] = assay: Anti-fibrotic effect in bile duct ligation (BDL) surgery-induced hepatic fibrosis C57BL/6 mouse model assessed as inhibition of collagen deposition in liver at 500 ug/kg, po five times a week for 2 weeks by Hematoxylin-Eosin (H&E) staining based assay; type: functional, organism-based; details: dose 500.0 µg/kg
[3] = target: T1, Vitamin D3 receptor (Homo sapiens) (UniProt P11473); assay: Agonist activity at Vitamin D receptor in human LX-2 cells assessed as transcriptional activity by measuring induction of CYP24A expression at 0.5 uM by RT-qPCR analysis relative to control; type: cell-based; details: filed as agonist
T1 sequence (whole entry): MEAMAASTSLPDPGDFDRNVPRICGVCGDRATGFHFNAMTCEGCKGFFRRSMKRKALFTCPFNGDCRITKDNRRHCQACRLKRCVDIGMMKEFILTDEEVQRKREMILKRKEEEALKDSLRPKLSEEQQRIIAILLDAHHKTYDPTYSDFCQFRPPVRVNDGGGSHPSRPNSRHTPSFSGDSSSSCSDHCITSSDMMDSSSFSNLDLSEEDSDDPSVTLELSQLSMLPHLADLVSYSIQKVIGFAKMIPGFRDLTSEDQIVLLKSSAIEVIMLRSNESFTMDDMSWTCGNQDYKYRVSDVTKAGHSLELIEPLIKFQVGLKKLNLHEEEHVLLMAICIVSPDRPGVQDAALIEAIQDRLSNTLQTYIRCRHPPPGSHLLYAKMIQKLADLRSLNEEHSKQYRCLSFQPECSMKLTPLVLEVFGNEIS

Mus musculus [4] = assay: Anti-fibrotic effect in CCl4-induced hepatic fibrosis C57BL/6 mouse model assessed as inhibition of serum ALT level at 500 ug/kg, po five times a week for 2 weeks; type: functional, organism-based; details: dose 500.0 µg/kg
Mus musculus [5] = assay: Anti-fibrotic effect in CCl4-induced hepatic fibrosis C57BL/6 mouse model assessed as decrease in inflammatory cell infiltration at 500 ug/kg, po five times a week for 2 weeks by Hematoxylin-Eosin (H&E) staining based assay; type: functional, organism-based; details: dose 500.0 µg/kg
Mus musculus [6] = assay: Anti-fibrotic effect in CCl4-induced hepatic fibrosis C57BL/6 mouse model assessed as reduction in hepatic fibrosis lesions at 500 ug/kg, po five times a week for 2 weeks by Masson's Trichrome staining based assay; type: functional, organism-based; details: dose 500.0 µg/kg
[7] = target: T1, Vitamin D3 receptor (Homo sapiens); assay: Binding affinity to human full-length Vitamin D receptor assessed as relative binding affinity at 1 uM incubated for 2 hrs by fluorescence polarization based competitive binding assay relative to calcipotriol; details: filed as agonist
Mus musculus [8] = assay: Anti-fibrotic effect in CCl4-induced hepatic fibrosis C57BL/6 mouse model assessed as inhibition of collagen deposition at 500 ug/kg, po five times a week for 2 weeks by Hematoxylin-Eosin (H&E) staining based assay; type: functional, organism-based; details: dose 500.0 µg/kg
[9] = Toxicity in bile duct ligation (BDL) surgery-induced hepatic fibrosis C57BL/6 mouse model assessed as serum hypercalcemia at 500 ug/kg, po five times a week for 2 weeks by calcium assay kit; type: organism-based; details: in vivo, 0.5 mg/kg, 336 h, dose 500 µg/kg
Mus musculus [10] = assay: Anti-fibrotic effect in bile duct ligation (BDL) surgery-induced hepatic fibrosis C57BL/6 mouse model assessed as inhibition of fibronectin (Fn) expression in liver at 500 ug/kg, po five times a week for 2 weeks by RT-qPCR analysis; type: functional, organism-based; details: dose 500.0 µg/kg
Mus musculus [11] = assay: Anti-fibrotic effect in bile duct ligation (BDL) surgery-induced hepatic fibrosis C57BL/6 mouse model assessed as inhibition of Timp-1 expression in liver at 500 ug/kg, po five times a week for 2 weeks by RT-qPCR analysis; type: functional, organism-based; details: dose 500.0 µg/kg
Mus musculus [12] = assay: Anti-fibrotic effect in CCl4-induced hepatic fibrosis C57BL/6 mouse model assessed as reduction the lesions at 500 ug/kg, po five times a week for 2 weeks by Masson's Trichrome staining based assay; type: functional, organism-based; details: dose 500.0 µg/kg
Mus musculus [13] = assay: Anti-fibrotic effect in CCl4-induced hepatic fibrosis C57BL/6 mouse model assessed as reduction the lesions at 500 ug/kg, po five times a week for 2 weeks by Hematoxylin-Eosin (H&E) staining based assay; type: functional, organism-based; details: dose 500.0 µg/kg
Mus musculus [14] = assay: Anti-fibrotic effect in CCl4-induced hepatic fibrosis C57BL/6 mouse model assessed as inhibition of serum AST level at 500 ug/kg, po five times a week for 2 weeks; type: functional, organism-based; details: dose 500.0 µg/kg
Mus musculus [15] = assay: Anti-fibrotic effect in improving CCl4-induced hepatic fibrosis C57BL/6 mouse model assessed as decrease in liver to kidney brightness ratio at 500 ug/kg, po five times a week for 2 weeks by qualitative ultrasound imaging analysis; type: functional, organism-based; details: dose 500.0 µg/kg
Mus musculus [16] = assay: Anti-fibrotic effect in CCl4-induced hepatic fibrosis C57BL/6 mouse model assessed as reduction in hepatic fibrosis lesions at 500 ug/kg, po five times a week for 2 weeks by Hematoxylin-Eosin (H&E) staining based assay; type: functional, organism-based; details: dose 500.0 µg/kg
Mus musculus [17] = assay: Anti-fibrotic effect in CCl4-induced hepatic fibrosis C57BL/6 mouse model assessed as inhibition of proliferation of fibrous tissue at 500 ug/kg, po five times a week for 2 weeks by Masson's Trichrome […] staining based assay; type: functional, organism-based; details: dose 500.0 µg/kg
Mus musculus [18] = assay: Anti-fibrotic effect in improving CCl4-induced hepatic fibrosis C57BL/6 mouse model assessed as uniform liver parenchyma at 500 ug/kg, po five times a week for 2 weeks by qualitative ultrasound imaging analysis; type: functional, organism-based; details: dose 500.0 µg/kg
Mus musculus [19] = assay: Anti-fibrotic effect in improving CCl4-induced hepatic fibrosis C57BL/6 mouse model assessed as inhibition of Ctgf expression in liver at 500 ug/kg, po five times a week for 2 weeks by RT-qPCR analysis; type: functional, organism-based; details: dose 500.0 µg/kg
Mus musculus [20] = assay: Anti-fibrotic effect in bile duct ligation (BDL) surgery-induced hepatic fibrosis C57BL/6 mouse model assessed as inhibition of Ctgf expression in liver at 500 ug/kg, po five times a week for 2 weeks by RT-qPCR analysis; type: functional, organism-based; details: dose 500.0 µg/kg
Mus musculus [21] = assay: Anti-fibrotic effect in bile duct ligation (BDL) surgery-induced hepatic fibrosis C57BL/6 mouse model assessed as reduction the lesions at 500 ug/kg, po five times a week for 2 weeks by Hematoxylin-Eosin (H&E) staining based assay; type: functional, organism-based; details: dose 500.0 µg/kg
Mus musculus [22] = assay: Anti-fibrotic effect in bile duct ligation (BDL) surgery-induced hepatic fibrosis C57BL/6 mouse model assessed as decrease in inflammatory cell infiltration at 500 ug/kg, po five times a week for 2 weeks by Hematoxylin-Eosin (H&E) staining based assay; type: functional, organism-based; details: dose 500.0 µg/kg
[23] = Toxicity in CCl4-induced hepatic fibrosis C57BL/6 mouse model assessed as serum hypercalcemia at 500 ug/kg, po five times a week for 2 weeks by calcium assay kit; type: organism-based; details: in vivo, 0.5 mg/kg, 336 h, dose 500 µg/kg
Mus musculus [24] = assay: Anti-fibrotic effect in CCl4-induced hepatic fibrosis C57BL/6 mouse model assessed as inhibition of proliferation of fibrous tissue at 500 ug/kg, po five times a week for 2 weeks by Hematoxylin-Eosin (H&E) staining based assay; type: functional, organism-based; details: dose 500.0 µg/kg
Mus musculus [25] = assay: Anti-fibrotic effect in improving CCl4-induced hepatic fibrosis C57BL/6 mouse model assessed as inhibition of fibronectin (Fn) expression in liver at 500 ug/kg, po five times a week for 2 weeks by RT-qPCR analysis; type: functional, organism-based; details: dose 500.0 µg/kg
Mus musculus [26] = assay: Anti-fibrotic effect in bile duct ligation (BDL) surgery-induced hepatic fibrosis C57BL/6 mouse model assessed as decrease in inflammatory cell infiltration at 500 ug/kg, po five times a week for 2 weeks by Masson's Trichrome staining based assay; type: functional, organism-based; details: dose 500.0 µg/kg

- Activity [3]: Active
- RBA [7]: 51.4%
Compound: OCc1ccc(/C=C/c2ccc(OCCCC(F)(F)F)cc2)cc1CO
- Activity (Mus musculus [1]): Active
- Activity (Mus musculus [2]): Active
- Activity (Mus musculus [4]): Active
- Activity (Mus musculus [5]): Active
- Activity (Mus musculus [6]): Active
- Activity (Mus musculus [8]): Active
- Activity [9]: Non-Toxic
- Activity (Mus musculus [10]): Active
- Activity (Mus musculus [11]): Active
- Activity (Mus musculus [12]): Active
- Activity (Mus musculus [13]): Active
- Activity (Mus musculus [14]): Active
- Activity (Mus musculus [15]): Active
- Activity (Mus musculus [16]): Active
- Activity (Mus musculus [17]): Active
- Activity (Mus musculus [18]): Active
- Activity (Mus musculus [19]): Active
- Activity (Mus musculus [20]): Active
- Activity (Mus musculus [21]): Active
- Activity (Mus musculus [22]): Active
- Activity [23]: Non-Toxic
- Activity (Mus musculus [24]): Active
- Activity (Mus musculus [25]): Active
- Activity (Mus musculus [26]): Active
